From paper PMC6892409, “Phenotypic proteomic profiling identifies a landscape of targets for circadian clock–modulating compounds” (Life Science Alliance, 2019)
Read-outs that look alike come from different tables or passages of the source.

What was measured:
Per2-dLuc U2OS cells = test: Circadian luminescence period assay, Per2-dLuc U2OS cells; assay type: cell-based, human; settings: for Circadian period length: 8 μM, mean ± SEM, control 24.2 ± […]; for Effect of kinase inhibitor on circadian period length: threefold serial dilution starting at 100 μM
Procedure: Per2-dLuc U2OS osteosarcoma and Bmal1-dLuc U2OS osteosarcoma reporter cell lines were gifts from Dr Andrew Liu, University of Memphis, USA ([Liu et al, 2008]). […] The cells were cultured at 37°C, 5% CO2 in a standard humidified incubator.

Synechococcus elongatus = test: Luminescence rhythm period assay in cyanobacteria; settings: 3, 8, 16 and 32 μM
Procedure: The D730nm was maintained between 0.27 and 0.45 by dilution with fresh medium.
Circadian period–altering compounds (dissolved in DMSO, final 0.5% DMSO) were then added in the air medium to reach the different desired concentrations. […] Images were generated from integrated photon counts over 25 min every 30 min using Metamorph software (Molecular Devices). […] Exported images were composed into image stacks and were quantified in a time series using a custom script in NIH ImageJ software, applying the “Multi Measure” plugin.

U2OS cells = test: TMT quantitative proteomics of compound-treated U2OS cells; assay type: cell-based, human; settings: 10 μM, 48 h, vs DMSO
ERK1/MAPK3 = target: T1, ERK1/MAPK3 (Homo sapiens, UniProt P27361); test: Radiometric HotSpot kinase assay; assay type: biochemical; settings: read-out: Enzyme activity (%) ERK1/MAPK3
T1 construct: purchased Reaction Biology
T1 sequence (P27361 whole entry): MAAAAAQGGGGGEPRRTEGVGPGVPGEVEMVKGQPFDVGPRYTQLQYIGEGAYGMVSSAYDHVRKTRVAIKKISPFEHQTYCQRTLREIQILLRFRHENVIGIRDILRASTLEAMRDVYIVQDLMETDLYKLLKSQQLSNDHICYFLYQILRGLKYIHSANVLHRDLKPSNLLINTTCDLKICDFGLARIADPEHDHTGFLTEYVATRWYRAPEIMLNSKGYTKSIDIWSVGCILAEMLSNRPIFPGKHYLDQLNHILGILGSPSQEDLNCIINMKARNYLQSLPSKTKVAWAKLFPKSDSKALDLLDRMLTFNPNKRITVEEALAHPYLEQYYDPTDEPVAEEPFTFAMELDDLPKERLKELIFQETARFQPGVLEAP
Procedure: (§1) In brief, specific kinase/substrate pairs were mixed in a buffer containing 20 mM Hepes (pH 7.5), 10 mM MgCl2, 1 mM EGTA, 0.02% Brij35, 0.02 mg/ml BSA, 0.1 mM Na3VO4, 2 mM DTT, and 1% DMSO. […] After a 20-min incubation, ATP (cat. no. A7699; Sigma-Aldrich) and [γ-^33P] ATP (cat. no. NEG602H001MC; PerkinElmer) were added at a final total concentration of […].

CAMK1d = target: T2, CAMK1d (Homo sapiens, UniProt Q8IU85); test: Radiometric HotSpot kinase assay; assay type: biochemical; settings: read-out: Enzyme activity (%) CAMK1d
T2 construct: purchased Reaction Biology
T2 sequence (Q8IU85 whole entry): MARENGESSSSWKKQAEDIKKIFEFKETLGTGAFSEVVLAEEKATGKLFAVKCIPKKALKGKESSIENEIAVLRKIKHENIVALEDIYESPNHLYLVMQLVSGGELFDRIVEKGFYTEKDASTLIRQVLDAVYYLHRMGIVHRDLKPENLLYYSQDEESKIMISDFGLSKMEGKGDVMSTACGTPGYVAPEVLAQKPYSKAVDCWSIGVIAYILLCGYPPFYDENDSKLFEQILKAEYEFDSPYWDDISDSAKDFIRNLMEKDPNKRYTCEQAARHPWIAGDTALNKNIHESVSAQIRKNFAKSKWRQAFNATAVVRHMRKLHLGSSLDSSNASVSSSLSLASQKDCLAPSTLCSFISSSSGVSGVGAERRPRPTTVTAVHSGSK
Procedure: as §1

ERK2/MAPK1 = target: T3, ERK2/MAPK1 (Homo sapiens, UniProt P28482); test: Radiometric HotSpot kinase assay; assay type: biochemical; settings: read-out: Enzyme activity (%) ERK2/MAPK1
T3 construct: purchased Reaction Biology
T3 sequence (P28482 whole entry): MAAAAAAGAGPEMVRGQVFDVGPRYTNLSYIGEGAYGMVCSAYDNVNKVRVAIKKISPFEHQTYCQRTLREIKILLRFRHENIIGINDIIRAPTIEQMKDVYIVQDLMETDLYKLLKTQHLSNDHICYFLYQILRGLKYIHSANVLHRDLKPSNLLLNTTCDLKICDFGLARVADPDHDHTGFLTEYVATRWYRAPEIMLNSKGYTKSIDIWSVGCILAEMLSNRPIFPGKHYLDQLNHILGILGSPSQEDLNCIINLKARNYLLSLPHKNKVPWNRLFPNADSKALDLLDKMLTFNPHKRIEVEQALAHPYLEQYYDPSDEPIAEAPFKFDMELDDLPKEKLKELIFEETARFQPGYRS
Procedure: as §1

TNIK = target: T4, TNIK (Homo sapiens, UniProt Q9UKE5); test: Radiometric HotSpot kinase assay; assay type: biochemical; settings: for remaining activity at 100 µM: read-out: Enzyme activity (%) TNIK
T4 construct: purchased Reaction Biology
T4 sequence (Q9UKE5 whole entry): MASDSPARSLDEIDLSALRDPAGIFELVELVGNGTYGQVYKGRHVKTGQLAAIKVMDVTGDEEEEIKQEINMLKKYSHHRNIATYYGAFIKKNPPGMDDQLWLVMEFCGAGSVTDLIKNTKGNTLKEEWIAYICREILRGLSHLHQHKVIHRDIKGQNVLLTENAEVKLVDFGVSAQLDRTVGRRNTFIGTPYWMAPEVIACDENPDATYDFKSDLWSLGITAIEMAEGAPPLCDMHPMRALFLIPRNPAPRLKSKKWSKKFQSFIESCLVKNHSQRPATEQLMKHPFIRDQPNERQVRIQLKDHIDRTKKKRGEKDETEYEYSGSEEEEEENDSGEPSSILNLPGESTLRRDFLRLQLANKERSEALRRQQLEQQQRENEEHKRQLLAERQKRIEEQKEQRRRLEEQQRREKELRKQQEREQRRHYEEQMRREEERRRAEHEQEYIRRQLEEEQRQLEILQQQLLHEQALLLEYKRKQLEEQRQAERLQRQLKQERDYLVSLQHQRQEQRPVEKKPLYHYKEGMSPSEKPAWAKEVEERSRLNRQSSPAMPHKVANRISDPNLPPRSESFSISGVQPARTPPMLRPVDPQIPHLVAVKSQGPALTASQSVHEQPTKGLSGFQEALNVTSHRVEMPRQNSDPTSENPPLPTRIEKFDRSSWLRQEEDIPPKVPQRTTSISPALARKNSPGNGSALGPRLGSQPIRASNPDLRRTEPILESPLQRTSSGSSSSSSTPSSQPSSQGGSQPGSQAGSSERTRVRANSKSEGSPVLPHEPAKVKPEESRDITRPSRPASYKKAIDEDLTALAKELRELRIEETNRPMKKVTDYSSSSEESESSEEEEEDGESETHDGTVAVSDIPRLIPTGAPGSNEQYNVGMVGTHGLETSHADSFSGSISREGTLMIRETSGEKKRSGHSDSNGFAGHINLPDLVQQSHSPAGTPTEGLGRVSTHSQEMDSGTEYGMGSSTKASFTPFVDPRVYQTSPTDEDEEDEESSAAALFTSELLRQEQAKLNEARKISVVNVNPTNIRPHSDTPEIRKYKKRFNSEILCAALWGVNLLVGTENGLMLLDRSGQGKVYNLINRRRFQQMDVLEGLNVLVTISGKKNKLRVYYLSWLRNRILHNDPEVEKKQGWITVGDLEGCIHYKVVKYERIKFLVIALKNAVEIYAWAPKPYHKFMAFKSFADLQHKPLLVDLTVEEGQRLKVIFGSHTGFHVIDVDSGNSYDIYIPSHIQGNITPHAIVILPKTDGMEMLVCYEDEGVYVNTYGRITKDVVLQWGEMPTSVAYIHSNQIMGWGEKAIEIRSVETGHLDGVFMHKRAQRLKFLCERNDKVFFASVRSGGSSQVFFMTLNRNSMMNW
Procedure: as §1

CDK2 = target: T5, CDK2 (Homo sapiens, UniProt P24941); test: Radiometric HotSpot kinase assay; assay type: biochemical; settings: n = 3, remaining activity vs DMSO, read-out: Enzyme activity (%) CDK2
T5 construct: purchased Reaction Biology
Procedure: as §1

MST4/STK26 = target: T6, MST4/STK26 (Homo sapiens, UniProt Q9P289); test: Radiometric HotSpot kinase assay; assay type: biochemical; settings: read-out: Enzyme activity (%) MST4/STK26
T6 construct: purchased Reaction Biology
T6 sequence (Q9P289 whole entry): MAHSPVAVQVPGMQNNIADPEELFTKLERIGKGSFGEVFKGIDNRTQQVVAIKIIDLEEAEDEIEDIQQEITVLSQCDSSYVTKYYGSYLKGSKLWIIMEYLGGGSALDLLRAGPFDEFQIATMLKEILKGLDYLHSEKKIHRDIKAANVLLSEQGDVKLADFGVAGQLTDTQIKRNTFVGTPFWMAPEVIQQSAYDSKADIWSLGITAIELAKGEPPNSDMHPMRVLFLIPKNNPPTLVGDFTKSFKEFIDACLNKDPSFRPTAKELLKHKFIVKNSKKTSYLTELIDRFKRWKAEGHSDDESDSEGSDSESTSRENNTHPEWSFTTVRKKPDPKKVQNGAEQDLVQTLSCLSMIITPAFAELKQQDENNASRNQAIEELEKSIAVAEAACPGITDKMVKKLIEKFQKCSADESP
Procedure: as §1

CK2a = target: T7, CK2a (Homo sapiens, UniProt P68400); test: Radiometric HotSpot kinase assay; assay type: biochemical; settings: read-out: Enzyme activity (%) CK2a
T7 construct: purchased Reaction Biology
T7 sequence (P68400 whole entry): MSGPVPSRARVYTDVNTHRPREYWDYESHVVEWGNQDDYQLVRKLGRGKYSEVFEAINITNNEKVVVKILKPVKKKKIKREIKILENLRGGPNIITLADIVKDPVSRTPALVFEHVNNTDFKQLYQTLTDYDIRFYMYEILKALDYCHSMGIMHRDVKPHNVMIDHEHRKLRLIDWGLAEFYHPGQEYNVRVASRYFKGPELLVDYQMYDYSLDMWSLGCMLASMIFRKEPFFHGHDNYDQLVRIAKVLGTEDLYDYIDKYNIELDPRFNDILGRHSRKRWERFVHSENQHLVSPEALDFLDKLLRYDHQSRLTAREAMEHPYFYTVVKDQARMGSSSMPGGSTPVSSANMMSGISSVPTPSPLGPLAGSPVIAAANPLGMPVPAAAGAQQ
Procedure: as §1

CAMK2d = target: T8, CAMK2d (Homo sapiens, UniProt Q13557); test: Radiometric HotSpot kinase assay; assay type: biochemical; settings: read-out: Enzyme activity (%) CAMK2d
T8 construct: purchased Reaction Biology
T8 sequence (Q13557 whole entry): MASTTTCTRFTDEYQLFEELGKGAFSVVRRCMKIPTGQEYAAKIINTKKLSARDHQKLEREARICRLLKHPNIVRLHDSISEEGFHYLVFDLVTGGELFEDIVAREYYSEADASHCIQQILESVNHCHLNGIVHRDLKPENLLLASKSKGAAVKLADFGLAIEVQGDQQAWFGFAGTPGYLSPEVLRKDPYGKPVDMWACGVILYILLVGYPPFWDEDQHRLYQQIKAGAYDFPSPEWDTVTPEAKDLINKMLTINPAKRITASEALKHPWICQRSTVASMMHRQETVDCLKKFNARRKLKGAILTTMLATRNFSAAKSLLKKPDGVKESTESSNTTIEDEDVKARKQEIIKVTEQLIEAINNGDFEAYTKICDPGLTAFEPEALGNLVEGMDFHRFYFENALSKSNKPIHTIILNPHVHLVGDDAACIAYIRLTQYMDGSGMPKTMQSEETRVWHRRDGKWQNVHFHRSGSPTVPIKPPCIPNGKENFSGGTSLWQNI
Procedure: as §1

CDK7 = target: T9, CDK7 (Homo sapiens, UniProt P50613); test: Radiometric HotSpot kinase assay; assay type: biochemical; settings: read-out: Enzyme activity (%) CDK7
T9 construct: purchased Reaction Biology
T9 sequence (P50613 whole entry): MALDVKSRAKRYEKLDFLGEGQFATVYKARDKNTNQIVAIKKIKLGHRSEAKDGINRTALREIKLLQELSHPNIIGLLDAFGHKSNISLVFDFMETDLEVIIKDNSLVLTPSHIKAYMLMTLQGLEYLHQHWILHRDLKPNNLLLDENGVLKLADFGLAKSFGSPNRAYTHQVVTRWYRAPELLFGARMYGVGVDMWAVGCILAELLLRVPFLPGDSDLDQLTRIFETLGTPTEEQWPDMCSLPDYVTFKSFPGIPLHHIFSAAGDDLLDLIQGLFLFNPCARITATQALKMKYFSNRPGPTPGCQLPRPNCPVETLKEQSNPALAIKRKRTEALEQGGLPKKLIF
T9 sequence (P51946 whole entry partner): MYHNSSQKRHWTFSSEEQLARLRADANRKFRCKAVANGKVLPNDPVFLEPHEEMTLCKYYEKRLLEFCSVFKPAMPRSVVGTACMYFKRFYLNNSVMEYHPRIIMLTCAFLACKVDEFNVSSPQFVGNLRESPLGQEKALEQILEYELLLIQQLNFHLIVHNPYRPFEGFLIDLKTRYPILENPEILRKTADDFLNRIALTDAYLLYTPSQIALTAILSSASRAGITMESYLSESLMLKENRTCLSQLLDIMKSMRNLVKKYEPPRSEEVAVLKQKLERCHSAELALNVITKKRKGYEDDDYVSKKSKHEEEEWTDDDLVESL
T9 sequence (P51948 whole entry partner): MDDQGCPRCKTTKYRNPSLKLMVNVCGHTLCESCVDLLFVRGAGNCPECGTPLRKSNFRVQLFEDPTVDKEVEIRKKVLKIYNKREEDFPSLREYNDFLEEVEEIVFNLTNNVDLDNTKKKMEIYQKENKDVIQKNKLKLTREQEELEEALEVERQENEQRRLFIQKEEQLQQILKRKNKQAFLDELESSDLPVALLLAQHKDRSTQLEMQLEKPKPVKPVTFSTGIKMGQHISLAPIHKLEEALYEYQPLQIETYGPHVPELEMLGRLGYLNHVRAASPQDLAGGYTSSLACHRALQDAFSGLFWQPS
Procedure: as §1

CK1d = target: T10, CK1d (Homo sapiens, UniProt P48730); test: Radiometric HotSpot kinase assay; assay type: biochemical; settings: n = 3, remaining activity vs DMSO, read-out: Enzyme activity (%) CK1d
T10 construct: purchased Reaction Biology
Procedure: as §1

[1] = 100 μM, n = 3, remaining activity vs DMSO

CC(C)n1cnc2c(NCc3cccc(C(F)(F)F)c3)ncnc21 [Longdaysin, longdaysin]
Circadian period length (Per2-dLuc U2OS cells): 35.1 ± 1.29 h
Effect on period length in cyanobacteria (Synechococcus elongatus): do not affect period length
Average Fold-change Acot9 Q9Y305 (U2OS cells): 0.86
Average Fold-change Atp5f1e P56381 (U2OS cells): 0.88
Average Fold-change Bak1 Q16611 (U2OS cells): 1.18
Average Fold-change Cdk7 P50613 (U2OS cells): 0.85
Average Fold-change Col1a1 P02452 (U2OS cells): 0.83
Average Fold-change Csnk2a2 P19784 (U2OS cells): 0.81
Average Fold-change Csnk1d P48730 (U2OS cells): 0.75
Average Fold-change Ctsb P07858 (U2OS cells): 1.19
Average Fold-change Cyb5b O43169 (U2OS cells): 1.15
Average Fold-change Emsy Q7Z589 (U2OS cells): 0.86
Average Fold-change Gusb P08236 (U2OS cells): 1.17
Average Fold-change H1f0 P07305 (U2OS cells): 1.31
Average Fold-change Hist1h4a P62805 (U2OS cells): 1.36
Average Fold-change Hist2h3a Q71DI3 (U2OS cells): 1.28
Average Fold-change Krt9 P35527 (U2OS cells): 0.78
Average Fold-change Mapk1 P28482 (U2OS cells): 0.75
Average Fold-change Mapk14 Q16539 (U2OS cells): 0.78
Average Fold-change Nemf O60524 (U2OS cells): 0.80
Average Fold-change Npc2 P61916 (U2OS cells): 1.20
Average Fold-change Nucks1 Q9H1E3 (U2OS cells): 1.22
Average Fold-change Ppig Q13427 (U2OS cells): 0.89
Average Fold-change Rpl7a P62424 (U2OS cells): 0.85
Average Fold-change Rpl14 P50914 (U2OS cells): 0.80
Average Fold-change Rpl18 Q07020 (U2OS cells): 0.85
Average Fold-change Rpl28 P46779 (U2OS cells): 0.86
Average Fold-change Rpl37 P61927 (U2OS cells): 0.87
Average Fold-change Rpl37a P61513 (U2OS cells): 0.88
Average Fold-change Smarcd2 Q92925 (U2OS cells): 0.88
Average Fold-change Spryd4 Q8WW59 (U2OS cells): 0.78
Average Fold-change Tecr Q9NZ01 (U2OS cells): 0.46
Average Fold-change Terf2 Q15554 (U2OS cells): 1.15

COc1ccc2c(c1)/C(=C/c1cnc[nH]1)C(=O)N2 [SU9516]
Effect of kinase inhibitor on circadian period length (Per2-dLuc U2OS cells): substantial dose-dependent increase in the period length

CC(C)[C@H](CO)Nc1nc(Nc2cccc(Cl)c2)c2ncn(C(C)C)c2n1 [Purvalanol A, purvalanol A]
remaining activity at 100 µM (ERK1/MAPK3; [1]): 83.6%
remaining activity at 100 µM (CAMK1d; [1]): 49.2%
remaining activity at 100 µM (ERK2/MAPK1; [1]): 66.5%
remaining activity at 100 µM (TNIK; [1]): 2.3%
IC50 (TNIK; 10-dose, threefold serial dilution starting at 100 μM): < 500 nM
remaining activity at 100 µM (CDK2): 0.7%
remaining activity at 100 µM (MST4/STK26; [1]): 32.7%
remaining activity at 100 µM (CK2a; [1]): 76.9%
remaining activity at 100 µM (CAMK2d; [1]): 53.2%
remaining activity at 100 µM (CDK7): 3.8%
remaining activity at 100 µM (CK1d): 21.7%
Circadian period length (Per2-dLuc U2OS cells): 25.2 ± 0.04 h
Effect on period length in cyanobacteria (Synechococcus elongatus): do not affect period length
Average Fold-change Acsf2 Q96CM8 (U2OS cells): 1.16
Average Fold-change Alcam Q13740 (U2OS cells): 1.20
Average Fold-change Arhgap29 Q52LW3 (U2OS cells): 1.19
Average Fold-change Cav1 Q03135 (U2OS cells): 1.17
Average Fold-change Cavin1 Q6NZI2 (U2OS cells): 1.22
Average Fold-change Cavin2 O95810 (U2OS cells): 1.29
Average Fold-change Cd47 Q08722 (U2OS cells): 1.17
Average Fold-change Cdk6 Q00534 (U2OS cells): 0.86
Average Fold-change Cdk7 P50613 (U2OS cells): 0.74
Average Fold-change Cdkn1a P38936 (U2OS cells): 1.52
Average Fold-change Cdkn1b P46527 (U2OS cells): 1.37
Average Fold-change Cers5 Q8N5B7 (U2OS cells): 1.14
Average Fold-change Cks1b P61024 (U2OS cells): 0.85
Average Fold-change Cks2 P33552 (U2OS cells): 0.83
Average Fold-change Col1a1 P02452 (U2OS cells): 0.80
Average Fold-change Ctsb P07858 (U2OS cells): 1.29
Average Fold-change Dpysl4 O14531 (U2OS cells): 1.15
Average Fold-change Fas P25445 (U2OS cells): 1.18
Average Fold-change Gls O94925 (U2OS cells): 0.80
Average Fold-change Gys1 P13807 (U2OS cells): 1.22
Average Fold-change H1f0 P07305 (U2OS cells): 1.20
Average Fold-change Hist1h4a P62805 (U2OS cells): 1.50
Average Fold-change Hist2h3a Q71DI3 (U2OS cells): 1.29
Average Fold-change Hmga1 P17096 (U2OS cells): 1.16
Average Fold-change Hmgcs1 Q01581 (U2OS cells): 0.77
Average Fold-change Hmgn2 P05204 (U2OS cells): 1.15
Average Fold-change Irf2bpl Q9H1B7 (U2OS cells): 1.15
Average Fold-change Itga2 P17301 (U2OS cells): 1.20
Average Fold-change Itga3 P26006 (U2OS cells): 1.17
Average Fold-change Naga P17050 (U2OS cells): 1.19
Average Fold-change Nbn O60934 (U2OS cells): 0.83
Average Fold-change Npc2 P61916 (U2OS cells): 1.33
Average Fold-change Pak1 Q13153 (U2OS cells): 1.19
Average Fold-change Ppp1cc P36873 (U2OS cells): 0.85
Average Fold-change Psap P07602 (U2OS cells): 1.20
Average Fold-change Rpl14 P50914 (U2OS cells): 0.75
Average Fold-change S100a2 P29034 (U2OS cells): 1.30
Average Fold-change Selenoh Q8IZQ5 (U2OS cells): 1.14
Average Fold-change Slc5a3 P53794 (U2OS cells): 1.16
Average Fold-change Slc20a1 Q8WUM9 (U2OS cells): 1.20
Average Fold-change Tada3 O75528 (U2OS cells): 1.28
Average Fold-change Uhrf1 Q96T88 (U2OS cells): 0.82

Cc1cc2sc(NC(=O)Cc3ccccc3)nc2cc1Cl [LH846]
Effect of kinase inhibitor on circadian period length (Per2-dLuc U2OS cells): substantial dose-dependent increase in the period length

NC(=O)c1ccc(-c2nc(-c3ccc4c(c3)OCCO4)c(-c3ccccn3)[nH]2)cc1 [D4476]
Effect of kinase inhibitor on circadian period length (Per2-dLuc U2OS cells): substantial dose-dependent increase in the period length

CC[C@H](CO)Nc1nc(NCc2ccccc2)c2ncn(C(C)C)c2n1 [Roscovitine, roscovitine]
remaining activity at 100 µM (ERK1/MAPK3): 59.1%
remaining activity at 100 µM (CAMK1d): 56.7%
remaining activity at 100 µM (ERK2/MAPK1): 50.6%
remaining activity at 100 µM (TNIK): 7.8%
remaining activity at 100 µM (MST4/STK26): 40.1%
remaining activity at 100 µM (CK2a): 89.4%
remaining activity at 100 µM (CAMK2d): 38.9%
remaining activity at 100 µM (CDK7): 4%
Circadian period length (Per2-dLuc U2OS cells): 28.9 ± 0.08 h
Effect on period length in cyanobacteria (Synechococcus elongatus): do not affect period length
